# Laboratory results from patent publication US8530507B2, “Use of levo-ornidazole in the preparation of anti-anaerobic bacteria infection drugs” (priority 2005, dated 2013).
# Experiments:
# [1] = In vivo pharmacokinetics in Beagle dogs
# Description: The clinical dose of ornidazole is 500 mg for human. By calculating, based on body surface area, the pharmacokinetic experimental dose in Beagle dogs was 13 mg/kg in vivo. Six adult beagle dogs (half males and half females, body weight of 9˜11.5 kg) were randomly divided into three groups. According to crossover design, intravenous injection of L-, D-, and racemic ornidazole were administered in turn to each dog every other week (with one week washout period in between). 2 ml of blood was collected from the vein located at the forelimb of the dogs before drug administration and 0.083, 0.5, 1.0, 2.0, 4.0, 6.0, 8.0, 12.0, 16.0, 24.0 hours after drug administration, which was then placed in the heparinized tube, followed by centrifugation to obtain the plasma. Plasma concentration of drug was determined by HPLC. Pharmacokinetics parameters were estimated using the non-compartmental models. The corresponding pharmacokinetics parameters were obtained by BAPP2.0 using the data of plasma concentration of blood with time obtained above.
# mice [2] = assay: Effect on the hypnotic effect induced by sodium thiopental in mice; conditions: 40 mg/kg sodium thiopental i.p. 30 minutes later
# Description: The same volume of 0.9% sodium chloride injection containing propylene glycol was administered in the vehicle control group. 30 minute after drug administration, 40 mg/kg of sodium thiopental was administered to mice by intraperitoneal injection. The time for the loss of righting reflex and the time for the recovery were recorded. The injection volume was 0.2 ml/10 g, the administration rate was 0.2 ml/10 sec.
# mice [3] = assay: Effects on spontaneous activities in mice; format: in vivo; conditions: for spontaneous activity compared with the vehicle control group: recorded at 0.5, 1, 2, 3 and 4 hours
# Description: Chlorpromazine was administered at dose of […] in the positive control group, and the same volume of propylene glycol containing 0.9% sodium chloride injection was administered in the vehicle control group. Spontaneous activity was recorded at 0.5, 1, 2, 3 and 4 hours after drug administration. The injection volume was 0.2 ml/10 g and the administration rate was 0.2 ml/10 sec.
# Beagle dogs = conditions: dog, in vivo, iv, 200 mg/kg
# Description: 2. Toxicity Test in Beagle Dogs (Non-Rodent) After Intravenous Administration of L-ornidazole for Two Weeks
# Beagle dogs, 4 dogs in each group with half females and half males, were divided into L-, D-, and racemic ornidazole groups.
# mice [4] = assay: Effect on the coordination of balancing in mice; format: in vivo; conditions: intravenous injection
# Description: Experiments were conducted in 9 administration groups, L-, D- and racemic ornidazole were administered to them at doses of 40, 80 and 160 mg/kg. Positive control group received chlorpromazine at a dose of 3 mg/kg.
# mice [5] = assay: Hypnotic effect of intravenous injection in mice (righting reflex); format: in vivo; conditions: mice, within 30 minutes
# Description: White mice, half males and half females, fasted for eight hours. The disappearance of righting reflex in mice was observed. The number of animals who lost their righting reflex was recorded in 30 minutes after drug administration.
# [6] = beagle dogs, individual intravenous dose 13 mg/kg, plasma
smiles,measurement,setting,value
Cc1ncc([N+](=O)[O-])n1C[C@@H](O)CCl [D-ornidazole],AUC0-t (area under curve),[1]; [6],66570 ± 10510 ng·h/mL
same,Cl (clearance),[1]; [6],1.59 ± 0.28 L/h
same,MRT (mean retention time of drugs),[1]; [6],8.74 ± 3.30 h
same,Vβ (elimination volume of distribution),[1]; [6],13.59 ± 4.99 L
same,in vivo transformation of enantiomers between L- and D-ornidazole,"[1]; dog, in vivo, iv",not occurred
same,t1/2 (half life),"[1]; dog, in vivo, iv, 13 mg/kg",6.06 ± 2.29 h
same,"duration of sleeping induced by sodium thiopental, compared with the vehicle control group",mice [2]; 40 mg/kg intravenous,significantly extended
same,"sleep latency induced by sodium thiopental, compared with the vehicle control group",mice [2]; 40 mg/kg intravenous,significantly reduced
same,"duration of sleeping induced by sodium thiopental, compared with the vehicle control group",mice [2]; 80 mg/kg intravenous,significantly extended
same,"sleep latency induced by sodium thiopental, compared with the vehicle control group",mice [2]; 80 mg/kg intravenous,significantly reduced
same,recovery of spontaneous activity,mice [3]; 40 mg/kg intravenous,gradually become normal after 3 hours
same,spontaneous activity compared with the vehicle control group,mice [3]; 40 mg/kg intravenous,"reduced significantly at 0.5, 1 and 2 hours"
same,recovery of spontaneous activity,mice [3]; 80 mg/kg intravenous,not recovered in 4 hours
same,spontaneous activity compared with the vehicle control group,mice [3]; 80 mg/kg intravenous,"reduced significantly at 0.5, 1, 2, 3 and 4 hours"
same,recovery of spontaneous activity,mice [3]; 160 mg/kg intravenous,not recovered in 4 hours
same,spontaneous activity compared with the vehicle control group,mice [3]; 160 mg/kg intravenous,"reduced significantly at 0.5, 1, 2, 3 and 4 hours"
same,food intake and body weight,Beagle dogs,significantly inhibited
same,histological examination of organs,Beagle dogs,significant pathological changes were not observed
same,manifestations (toxicity and side effects),Beagle dogs,"drooling, vomiting, myasthenia of limbs, astasia, hyperspasmia"
same,number of Purkinje cells in cerebellum (histological examination),Beagle dogs,significantly reduced
same,effect on the coordination and balance (number of falling animals),mice [4]; 160 mg/kg,significant effect
same,"effect on the coordination and balance, compared with the vehicle control group",mice [4]; doses of 40 and 80 mg/kg,no significant effect
same,number of mice with loss in righting reflex,mice [5]; individual dose of 160 mg/kg intravenous,10 mice
same,loss in righting reflex,mice [5]; individual dose of 40 or 80 mg/kg intravenous,No loss in righting reflex
